This note sets out measurements from patent US20240376087A1, “PYRAZOLE AMIDE BASED COMPOUNDS AND USES AGAINST BREAST CANCER THEREOF” (COUNCIL OF SCIENTIFIC AND INDUSTRIAL RESEARCH AN INDIAN …, priority 2021, published 2024).

For assay [1], the system named is MDA MB 231 cells. The assay is described as follows: Cytotoxicity studies by MTT assay. It is filed as cell-based. The following applies: Homo sapiens, 24 hrs, read-out: GI50 (50% growth inhibition value). The protocol: The cells used for the study, human breast adenocarcinoma (MDA-MB-231) and normal human lung fibroblast cells ([…]) were procured from NCCS, Pune, India, and ATCC, VA, USA, respectively. Cells were maintained in standard culture conditions in DMEM supplemented with 10% FBS and 100 units/ml penicillin/streptomycin under 5% CO2 at 37° C. in a humidified incubator. After 2-3 passages, the cells were seeded on cell culture dishes and were used for different experiments.
A 10 mM stock solution of I-8 was prepared in DMSO and diluted with DMEM supplemented with 5% FBS for each experiment so that the DMSO concentration was <0.1% in the treated cells. Paclitaxel at a concentration of 50 nM was used as the positive control.
MTT assay was used for testing the cytotoxicity of NIIST-AC-1 in MDA MB 231 cells. 1×10^4 cells/well were seeded in 96 well culture plates and were treated with different concentrations of NIIST-AC-1 for 24 hrs. The percentage of viable cells were monitored based on the purple colour developed by MTT at 570 nm and from that the concentration of NIIST-AC-1 required for 50% inhibition of the viability was calculated as the GI50 value.
For orientation: Formazan colour is commonly taken as a measure of viable cells.

Assay [2] relates to MDA MB 231 cells. As to the kind of experiment: Morphological analysis by phase contrast and electron microscopy. The following applies: MDA MB 231, phase contrast and SEM. It is filed as cell-based, human. The source says: Morphological analysis of the cells treated with NIIST-AC-1 at different concentrations were monitored using phase contrast microscope Nikon EclipseTS100 (Nikon Instruments Inc., Melville, NY, USA, Magnification 20×) and SEM (Zeiss EVO 18 Special Edition) at ×2k and ×5k magnification.

Assay [3] relates to MDA MB 231 cells. The assay is described as follows: Nuclear fragmentation by DAPI staining. Format: cell-based, human. To be noted: MDA MB 231, DAPI staining, 24 hr. The protocol:
Fragmentation of the nucleus on treatment with NIIST-AC-1 was analyzed using the cell permeable dye which binds to AT rich sequences in the minor groove of DNA. After treatment in 96 well culture plates for 24 hr, the cells were stained with DAPI for 20 min. The morphology of the stained nucleus was observed using a spinning disc fluorescent microscope at an excitation/emission of 360/460 nm (BD Pathway™ 855; Biosciences), and images were taken using the software BD Atto Vision™ version 1.6.

Assay [4] concerns MDA MB 231 cells. The assay is described as follows: Phosphatidyl serine translocation by annexin V staining. Format: cell-based, human. The following applies: MDA MB 231, annexin V staining, 24 hrs. The protocol: The translocation of phosphatidyl serine to the outer leaflet of plasma membrane during apoptosis was studied by Annexin V-Cy3™ Apoptosis Detection Kit. After treatment with different concentrations of NIIST-AC-1 for 24 hrs, the cells were washed and stained with annexin V for 10 min. After the staining solution was removed, the binding buffer was added and the cells observed under a spinning disc fluorescent microscope (BD Biosciences), and images were taken using the software BD Atto Vision version 1.6.

Assay [5] deals with caspase-3. As to the kind of experiment: Assay of caspase 3 (fluorometric, cell lysates). Format: cell-based, human. To be noted: MDA MB 231 cell lysates, DEVD-AFC. How it is done: The activities of the initiator caspase-9 and downstream executioner caspase-3 were measured using Fluorometric Assay Kit. The caspase activity in the cell lysates of control and treated cells were measured by using the fluorescent substrate DEVD-AFC (for caspase-3 activity) and LEHD-AFC (for caspase-9 activity). Samples were read at 400-nm excitation filter and 505-nm emission filter in a fluorescent microplate reader (BioTek Synergy HT) using Gen5™ ver 1.05.11 software, and the results were expressed as relative units in terms of fluorescence.

The subject of assay [6] is MDA MB 231 cells. As to the kind of experiment: Measurement of intracellular reactive oxygen species (FACS). Format: cell-based, human. The following applies: MDA MB 231, CM-H2DCFDA. How it is done: The upregulation of ROS upon treatment with NIIST-AC-1 was analyzed using the fluorescent probe CM-H2DCFDA (Sigma). After treatment, the cells were incubated DMEM containing CM-H2DCFDA at a final concentration of 5 μM at 37° C. for 30 min. The trypsinised cells were then suspended in PBA and analyzed using FACS (BD FACSAria II (BD Biosciences) at fluorescein isothiocyanate (FITC) range (excitation 495 nm, emission 529 nm bandpass filter). The mean fluorescence intensities of different groups were analyzed by BD FACSDiva ver 6.1.3 software and corrected for autofluorescence from unlabeled cells.

The subject of assay [7] is MDA MB 231 cells. As to the kind of experiment: Measurement of mitochondrial membrane potential (JC-1). It is filed as cell-based, human. To be noted: MDA MB 231, JC-1, 24 h. The protocol:
The cells were then treated with various concentrations of NIIST-AC-1 for 24 h. After removing the spent medium, 100 μl of freshly prepared JC-1 stain was added and samples were then incubated for 20 min in a CO2 incubator at 37° C. Immediately after the incubation, cells were observed under a spinning disc fluorescent microscope (BD Pathway 855), and images were taken using the software BD Atto Vision version 1.6.

The test system of assay [8] is MDA MB 231 cells. As to the kind of experiment: Cell cycle analysis (PI flow cytometry, western blot). Format: cell-based, human. How it is done:
The distribution of cells in different phases of cell cycle was determined by flow cytometry after staining with propidium iodide. After treatment, the cells were harvested, ethanol fixed and stained with propidium iodide at 25° C. for 30 minutes. The cellular DNA content was measured with BD FACS Fortessa X-20 SORP according to detected signals in FL2 channel (excitation, 493 nm; emission, 636 nm) and data were analyzed with FloJo software, version 9. Approximately 10,000 cells were counted for each analysis, and the distribution of cells in each phase of the cell cycle was saved as histograms. Western blot analysis was done to study the expression profiles of various proteins involved in the cell cycle machinery.

Assay [9] relates to MMP-9. As to the kind of experiment: Gelatin zymography for MMP activity. Format: cell-based, human. To be noted: gelatin zymography of spent medium. The protocol: The activity of MMPs in the spent medium from the cell culture was allowed to react with the substrate gelatin impregnated in the SDS-PAGE gel. After electrophoresis, the gel was washed with Triton solution and incubated with activation buffer 50 mM Tris containing 0.2 M NaCl and 5 mM CaCl2) at 37° C. for 18-20 h for reaction to occur. The gel was stained with Coomassie Brilliant Blue solution and after destaining, gelatin cleaved zones by MMPs were observed as white clear zones which were imaged using ChemiDoc™ MP System with IMAGE LAB™ Software (Bio-Rad).

Assay [10] relates to EGFR. As to the kind of experiment: EGFR expression studies (immunofluorescence). It is filed as cell-based, human. The following applies: fluorescent images. The protocol:
The expression of EGFR after treatment with NIIST-AC-1 was evaluated using indirect immunofluorescence. The cells after treatment were fixed with paraformaldehyde and incubated with primary antibody overnight. After washing the primary antibody, the cells were treated with alexa fluor conjugated secondary antibody for visualization. The cells were counterstained with DAPI for nuclear staining and were observed under a fluorescent microscope (IX83 inverted microscope; Olympus Life Science, cell Sens Dimension ver 3.1 software).

The GI50 is the concentration giving 50% growth inhibition.

In the case of `COc1cc(-c2cc(C(=O)NCc3cc(C(F)(F)F)cc(C(F)(F)F)c3)[nH]n2)cc(OC)c1OC` [I-8, N-(3,5-bis(trifluoromethyl)benzyl)-3-(3,4,5-trimethoxyphenyl)-1H-pyrazole-5-carboxamide], the GI50 in assay [1] came to 15.1 µM. In addition, the “morphological changes of the cells” value in assay [2] is given as “significant morphological changes”. In addition, in assay [3], the nuclear fragmentation entry is listed as “significant nuclear fragmentation”. Besides, the phosphatidyl serine translocation result in assay [4] was “phosphatidyl serine translocation”. The “caspase 3 activity” value in assay [5] is listed as “upregulated caspase activity”. In addition, the ROS generation entry in [6] is on record as “significant generation of ROS”. In [7], the mitochondrial membrane potential entry is listed as “loss of mitochondrial membrane potential”. The cell cycle arrest entry in assay [8] (MDA MB 231, PI labelling, FACS) is reported as “cell cycle arrest at S phase”. In addition, in [8] (western blot), the “cell cycle regulatory proteins cyclin B1, cyclin A2 and CDK” value was “downregulated”. In addition, the MMP-9 activity entry in [9] is given as “reduced”. The EGFR expression entry in assay [10] is on record as “reduction in EGFR expression”.
